Where “and” joins values, the source holds several entries; their conditions need not be identical. Equal values may be shown once.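 The compound was tested at five concentrations on cells cultured in 96-well plates, with a 48-hour exposure period. Here, GI50 denotes the concentration required for 50% inhibition of growth. At the TGI there is no net growth.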
Columns and labels:
Assay in all cases: growth of human tumour cells (NCI), 48 h
786-0 renal = system: 786-0 renal
RPMI-8226 leukemia = system: RPMI-8226 leukemia
MDA-MB-231 breast = system: MDA-MB-231 breast
DU-145 prostate = system: DU-145 prostate
MCF7 breast = system: MCF7 breast
COLO 205 colon = system: COLO 205 colon
UACC-257 melanoma = system: UACC-257 melanoma
HOP-92 NSCLC = system: HOP-92 NSCLC

Row | Compound | GI50 (786-0 renal) | TGI (786-0 renal) | GI50 (RPMI-8226 leukemia) | TGI (RPMI-8226 leukemia) | GI50 (MDA-MB-231 breast) | TGI (MDA-MB-231 breast) | GI50 (DU-145 prostate) | TGI (DU-145 prostate) | GI50 (MCF7 breast) | TGI (MCF7 breast) | GI50 (COLO 205 colon) | TGI (COLO 205 colon) | GI50 (UACC-257 melanoma) | TGI (UACC-257 melanoma) | GI50 (HOP-92 NSCLC) | TGI (HOP-92 NSCLC)
1 | O=C(N/N=C/c1ccc(F)cc1)c1ccc(C(F)(F)F)nc1Nc1cccc(C(F)(F)F)c1 | 0.691 µM | 4.62 µM | 1.07 µM | 3.34 µM | 1.23 µM | 4.82 µM | 0.444 µM | 1.88 µM | 1.47 µM | 5.78 µM | 1.56 µM | 3.47 µM | 2.23 µM | 6.72 µM | – | –
2 | CCCCCCCCCCCCOC1C(C(CC(=O)N2CCN(Cc3ccc4c(c3)OCO4)CC2)NS(=O)(=O)c2cc(Cl)cc(Cl)c2)OC2OC(C)(C)OC21 (centres undefined) | 20.4 µM | > 86.5 µM | 3.79 µM | > 47.5 µM | 18.1 µM | > 89.8 µM | 25.5 µM | > 100 µM | 4.45 µM | 36.6 µM | 11.7 µM | > 78.3 µM | 59.1 µM | > 100 µM | 15.1 µM | > 62.8 µM
3 | CCOc1ccc(Nc2nc(-c3c(C)nc4ncccn34)cs2)cc1 | 0.0392 µM | 18.4 µM | 0.0366 µM | 14.5 µM | 0.0797 µM | 22.6 µM | 0.0431 µM | 19.2 µM | 0.412 µM | 14.9 µM | < 0.01 µM | 0.0404 µM | 6.77 µM | 21.3 µM | 0.0362 µM | 13.4 µM
4 | O=C(Oc1ccc2c(c1)CN(Cc1ccccc1)CO2)c1ccccc1 | – | 30.7 µM | – | 52.7 µM | – | 36 µM | – | 36.7 µM | – | 32.7 µM | – | 31 µM | – | 29.5 µM | – | 28.2 µM
5 | Fc1ccc(-c2nn3c(COc4ccc(Cl)cc4)nnc3s2)cc1Oc1ccccc1 | 14.2 µM | 30 µM | 13.9 µM | 29 µM | 16.4 µM | 35.8 µM | 48.5 µM | > 100 µM | 21.9 µM | > 48.3 µM | 41.8 µM | > 61.8 µM | 41.6 µM | > 100 µM | 10.1 µM | 21.7 µM
6 | C=C1CC/C=C(\C)CC[C@H](C(=C)C)[C@@H](O)/C=C(/CO)CCC1O (some centres undefined) | > 100 µM | > 100 µM | 32 µM | 71.6 µM | > 100 µM | > 100 µM | 93.2 µM | > 100 µM | 21.4 µM | > 100 µM | 88.2 µM | > 100 µM | > 100 µM | > 100 µM | – | –
7 | COC(=O)[C@H](Cc1cn(C)cn1)NC(=O)[C@@H](NC(=O)Nc1cc(C(F)(F)F)cc(C(F)(F)F)c1)C(C)C | > 10 µM | > 10 µM | 3.03 µM | > 10 µM | 1.71 µM | 4.42 µM | > 10 µM | > 10 µM | 1.98 µM | 4.67 µM | 4.94 µM | > 10 µM | > 10 µM | > 10 µM | 5.48 µM | > 10 µM
8 | N#CC(NC(=O)CCl)=C(Cl)Cl | 2.13 µM | 5.87 µM | – | – | 1.73 µM | 3.24 µM | 1.69 µM | 4.02 µM | 1.22 µM | 9.07 µM | 1.44 µM | 2.99 µM | 1.55 µM | 3.09 µM | – | –
9 | COc1ccc(Cc2nc3cc(OC)c(OC)cc3c(=O)[nH]2)cc1 | 7.31 µM | > 100 µM | 4.05 µM | > 100 µM | 9.83 µM | > 100 µM | 9.38 µM | > 67 µM | 5.32 µM | > 47.5 µM | 2.33 µM | 6.93 µM | 6.42 µM | 32.1 µM | 21.9 µM | > 100 µM
10 | CCSc1ncc(Br)c(Sc2nc(N)nc3nc[nH]c23)n1 | 3.22 µM | > 100 µM | 3.87 µM | > 100 µM | 2.8 µM | > 100 µM | 2.95 µM | 60.9 µM | 3.04 µM | > 100 µM | 15.1 µM | 52.6 µM | 12.4 µM | > 100 µM | 1.97 µM | 43.4 µM
11 | OCC#Cc1ccccc1C#Cc1ccc(C#Cc2ccccc2)cc1 | 23.5 µM | 55.9 µM | 6.05 µM | 22.2 µM | 20 µM | 37.5 µM | 16.7 µM | 34.4 µM | 15.9 µM | 38.3 µM | 24.9 µM | 70.7 µM | 27.6 µM | 69.8 µM | – | –
12 | Cc1ccnc(Nc2ccc([N+](=O)[O-])c(NCCN3CCOCC3)n2)c1 | 0.00821 µM and 0.0149 µM | 23.7 µM | 0.0212 µM and 0.0269 µM | 24.5 µM | 0.0213 µM and 0.0379 µM | 48.5 µM | 0.00693 µM and 0.0284 µM | – | 0.00334 µM | 20.5 µM | 0.00502 µM | 0.0417 µM and 0.0333 µM | – | – | – | –
13 | Nc1ncc(C2[C@H](CNC(=O)c3cc(Br)c[nH]3)C(CNC(=O)c3cc(Br)c[nH]3)[C@@H]2c2cnc(N)[nH]2)[nH]1 (some centres undefined) | > 50 µM | > 50 µM | > 50 µM | > 50 µM | 8.01 µM | > 50 µM | 0.329 µM | > 50 µM | > 50 µM | > 50 µM | – | – | > 50 µM | > 50 µM | 43.7 µM | > 50 µM
14 | O=C(O)Cn1ccc(=O)c2cc([N+](=O)[O-])ccc21 | – | > 100 µM | – | – | – | 33.5 µM | – | > 100 µM | – | > 100 µM | – | > 100 µM | – | > 100 µM | – | –
15 | Cn1ccnc1C(=O)/C=C/c1ccc(C(=O)Nc2c(F)c(F)c(F)c(F)c2F)cc1 | 1.83 µM | 3.62 µM | 0.505 µM | 2.54 µM | 2.27 µM | 6.7 µM | 1.64 µM | 3.11 µM | – | – | 1.82 µM | 3.63 µM | 3.1 µM | 10.4 µM | 2.11 µM | 7.33 µM
16 | Nc1ncnc2c1nc(Cl)n2C1OC(CO)C(O)C1O (centres undefined) | – | > 100 µM | – | – | – | > 100 µM | – | > 93.3 µM | – | > 100 µM | – | > 100 µM | – | > 100 µM | – | > 66.2 µM
17 | COc1cc(/C=C2\C(=O)N(C)c3ccccc32)cc(OC)c1OC | 25.3 µM | 97.4 µM | 9.67 µM | 49.1 µM | 14.2 µM | 68.4 µM | – | – | 20.3 µM | > 100 µM | 17.7 µM | > 100 µM | 21.4 µM | 55 µM | 15.9 µM | 70.6 µM

From PubChem BioAssay (NCI)
